Here are results for three compounds from publication PMC11207073, “Protein Tyrosine Phosphatase 1B Inhibitors of Pueraria lobata Based on the Spectrum–Effect Relationship by Q-Marker Selection” (Molecules, 2024).

This assay addresses T1, Protein tyrosine phosphatase 1B (PTP1B) (Homo sapiens, UniProt P18031).
T1 construct: gene PTPN1
T1 sequence (P18031 1-435): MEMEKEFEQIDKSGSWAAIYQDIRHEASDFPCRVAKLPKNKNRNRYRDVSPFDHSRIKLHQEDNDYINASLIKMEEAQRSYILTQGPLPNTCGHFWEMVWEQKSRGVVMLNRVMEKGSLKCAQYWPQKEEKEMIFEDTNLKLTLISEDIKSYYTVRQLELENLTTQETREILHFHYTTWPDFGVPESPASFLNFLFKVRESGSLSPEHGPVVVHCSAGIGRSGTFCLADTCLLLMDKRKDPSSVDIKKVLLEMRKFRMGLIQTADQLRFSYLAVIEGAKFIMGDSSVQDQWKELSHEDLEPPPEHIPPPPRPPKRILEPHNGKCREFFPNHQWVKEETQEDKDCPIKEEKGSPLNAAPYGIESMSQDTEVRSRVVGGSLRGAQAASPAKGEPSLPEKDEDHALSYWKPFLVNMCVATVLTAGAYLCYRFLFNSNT
The assay is described as follows: pNPP phosphatase assay with commercial PTP1B, absorbance at […] nm. The assay is classed as biochemical.
`COc1cc2c(=O)c(-c3ccc(O)cc3)coc2cc1O[C@@H]1O[C@H](CO)[C@@H](O)[C@H](O)[C@H]1O` (single isomer, unassigned) [peak 9, glycitin] had a half-inhibitory concentration (IC50) of 23.7 µM.
`O=c1c(-c2ccc(O)cc2)coc2cc(O[C@@H]3O[C@H](CO)[C@@H](O)[C@H](O)[C@H]3O)cc(O)c12` (single isomer, unassigned) [peak 11, genistin]: the half-maximal inhibitory concentration (IC50) was 38.1 µM.
Compound `COc1ccc(-c2coc3c([C@@H]4O[C@H](CO)[C@@H](O)[C@H](O)[C@H]4O)c(O)ccc3c2=O)cc1` (single isomer, unassigned) [peak 12, 4′-methoxypuerarin] showed a concentration for half-maximal inhibition (IC50) of 21.7 µM.

By IC50 is commonly meant the concentration needed to halve the response being measured. Higher therefore signals weaker potency.
